Results: patent US12714702B2, “Compositions and methods for treating or preventing pulmonary hypertension” (priority 2020, dated 2026)

Assays:
[1] = target: ITCH/AIP4 E3 ligase (Homo sapiens, UniProt Q96J02); experiment: ITCH/AIP4 E3 ligand activity assay, ubiquitin ELISA (UbiQuant); assay type: biochemical; conditions: 20 μM dose
Description: The ligand activity inhibition by QA at multiple concentrations (0, 10, or 20 μM) in presence of ubiquitin was quantified.

[2] = system: pulmonary arteries of MCT-induced PAH animals; experiment: MCT model, trichrome staining of lung sections and medial wall thickness; assay type: in vivo, rat; conditions: MCT rats
Text: (§1) At the end of treatment period with QA, animals were sacrificed. Chest was surgically opened to expose rat lungs. Lung tissues were collected, and blinded tissues were sectioned by Reveal Bio (San Diego, CA) at 5 μm thickness. 2 tissue sections for each animal were earmarked for Trichrome staining; and 8 more sections were provided blank for custom staining.
(§2) Tissue sections were stained using trichrome staining to visualize pulmonary arteries for all treatment and control groups. Stained lung sections were imaged using Zeiss Axio Scope A1 microscope equipped with Axiocam 506 color camera and Zeiss Zen 2.3 software. Medial wall thickness for similar sized pulmonary arteries was measured using a Motic BA210 microscope and measurements were made using Motic Image plus 2.0 software. Five pulmonary artery walls were analyzed per animal (n=2 to 5)
Additionally, lung tissue sections from the MCT-induced PAH lung tissue were examined using trichrome staining.
Medial wall thickness of pulmonary arteries was measured using the trichrome stained microscopic images.

[3] = system: serum starved bovine PASMCs; experiment: Autophagy inhibition assay, Cyto-ID autophagy detection kit; assay type: cell-based; conditions: QA 2.5 and 5 μM, 24 hours
Description: In FIGS. 9A-9B, PASMC were serum starved for 24 hours, and then treated with varying QA concentrations in serum-starved media. Quantification was performed using Cyto-ID® autophagy kit and Annexin-V/FITC apoptosis kit. […] In FIG. 9C, autophagy inhibition by QA (5 μM) as depicted by increase in LC3B-II concentration in bovine high altitude PASMC quantified by western blot assay kit. Data represent mean±SD (n=3). *p<0.05.
Bovine PASMCs were serum starved in FBS-free media for 24 hours, and then treated with QA for 24 hours at various concentrations (0, 2.5, or 5 μM). Autophagic inhibition (lysosomal fusion with autophagosomes) was measured with Cyto-ID® autophagy detection kit (Enzo Lifesciences Inc., Farmingdale NY) according to manufacturer's manual.
Autophagy inhibition (lysosomal fusion with autophagosomes) by QA was examined. Bovine PASMCs were serum starved in FBS-free media for 24 hours, and then treated with QA (2.5 and 5 μM) for 24 hours. Autophagic inhibition was measured with Cyto-ID® autophagy detection kit. […] QA-induced autophagy inhibition by targeting LC3B-II expression was examined using HAPASMCs.
In other independent experiments, QA's ability to modulate autophagy/apoptotic pathways was quantified in vitro in serum-starved bovine PASMC cells. Similar results were observed.

[4] = system: bovine HAPASMC; experiment: Anti-proliferative efficacy in high-altitude bovine PASMC; assay type: cell-based; conditions: inherently highly proliferating bovine HAPASMC, 1.5-5.0 μM, time- and concentration-dependent
Description: Data represent mean±SD (n=5) repeated over 3 experiments. *p<0.05.
Human or bovine PASMC were treated with varying concentrations of QA (1.5-, 3.1-, and 6.2-μM). Cellular proliferation was measured at day 1, day 3 and day 5 by following the manufacturer's protocol. Briefly, a reagent mix of nucleic acid stain and background suppressor were added in PBS followed by addition of the mix in treatment wells (100 μL/well). The plates were incubated at 37° C./5% CO2 for one hour followed by evaluation of fluorescence at 485 ex/535 em. Proliferation inhibition was analyzed relative to control wells on each time point. Data was averaged from two trials with n=6 for SMC II and one trial of n=4 for SMC III.
In-vitro studies to measure anti-proliferative activity of QA against pulmonary hypertension were performed using primary human PASMC (FIG. 3), primary bovine PASMC (FIG. 4) and high altitude PASMC (HAPASMC) (FIG. 4). HAPASMC, due to prolonged hypoxia exposure, are known to be hyper-proliferative in regular culture conditions, while hyper-proliferation was induced in PASMC cells by 24 hour serum starvation, or by exposure to 5-hydroxytryptamine (5-HT). […]

[5] = system: pulmonary arterioles of SU5416/hypoxia-induced PAH animals; experiment: SU5416/hypoxia model, muscularization, trichrome staining and medial wall thickness; assay type: in vivo, rat
Description: Adult male rats were injected with SU5416 (20 mg/kg) subcutaneously and were kept under hypoxia (10% O2) for 3 weeks. QA was administered once-a-day intraperitoneally at a dose of 10 mg/kg for 21 days starting from Day 1. […] Data represent mean±SD (n=4-5). *p<0.05.
as §1, §2
After 3 weeks, hemodynamic studies were performed.

Sequence of ITCH/AIP4 E3 ligase (Q96J02 whole entry): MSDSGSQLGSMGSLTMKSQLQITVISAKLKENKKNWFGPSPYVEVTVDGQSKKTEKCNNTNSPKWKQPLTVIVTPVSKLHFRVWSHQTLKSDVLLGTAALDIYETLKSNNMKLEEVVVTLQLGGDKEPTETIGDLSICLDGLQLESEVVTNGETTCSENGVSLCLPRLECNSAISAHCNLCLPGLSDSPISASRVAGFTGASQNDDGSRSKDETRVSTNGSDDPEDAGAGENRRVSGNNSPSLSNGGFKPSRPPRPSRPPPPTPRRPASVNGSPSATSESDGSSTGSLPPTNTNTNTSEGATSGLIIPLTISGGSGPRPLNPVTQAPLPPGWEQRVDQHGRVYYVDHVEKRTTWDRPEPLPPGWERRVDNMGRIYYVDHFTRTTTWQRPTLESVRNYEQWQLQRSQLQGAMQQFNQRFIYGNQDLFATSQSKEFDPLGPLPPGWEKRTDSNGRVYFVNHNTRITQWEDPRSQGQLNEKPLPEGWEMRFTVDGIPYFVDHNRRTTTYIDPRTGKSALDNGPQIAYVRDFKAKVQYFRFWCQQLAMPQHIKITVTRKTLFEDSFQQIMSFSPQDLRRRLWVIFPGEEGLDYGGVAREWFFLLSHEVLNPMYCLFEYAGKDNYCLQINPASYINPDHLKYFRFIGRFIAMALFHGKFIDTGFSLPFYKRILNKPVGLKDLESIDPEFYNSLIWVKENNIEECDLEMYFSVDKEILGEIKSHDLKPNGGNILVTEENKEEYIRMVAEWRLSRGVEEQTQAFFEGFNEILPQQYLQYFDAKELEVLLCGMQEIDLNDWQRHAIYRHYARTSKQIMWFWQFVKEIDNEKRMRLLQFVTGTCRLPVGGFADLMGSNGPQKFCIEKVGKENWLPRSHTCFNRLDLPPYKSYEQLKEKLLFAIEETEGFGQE

CCN(CC)CCCC(C)Nc1c2ccc(Cl)cc2nc2ccc(OC)cc12 (stereo not drawn) [QA, quinacrine]
reduction in total polyubiquitination resulting from ITCH/AIP4 activity [1]: ~ 25% | medial wall thickness of pulmonary arteries ([2]; compared to sham control animals): back to almost normal | collagen and muscular deposition in pulmonary arterioles ([2]; trichrome staining): significant reduction | accumulation of fluorescent dye in autophagosomes (autophagy inhibition) [3]: significantly enhanced the accumulation | proliferation [4]: significantly inhibits proliferation | medial wall thickness in pulmonary arterioles ([5]; SU5416/hypoxia rats (FIG. 14D)): significant reduction | vessel muscularization (less completely muscularized blood vessels than control) ([5]; SU5416/hypoxia rats, pulmonary arterioles): 3.5 folds | collagen and muscular deposition in pulmonary arterioles ([5]; SU5416/hypoxia rats, trichrome staining): significant reduction | reduction in medial wall thickness of pulmonary arteries ([5]; compared to SU5416/hypoxia-induced PAH animal tissue sections (FIG. 16)): about 2 fold
